What was measured:
human mPGES-1 = target: T1, human mPGES-1 (Homo sapiens, UniProt O14684); assay: Microsomal prostaglandin E synthase biochemical assay; conditions: microsomes containing human mPGES-1, PGH2 10.8 μM, GSH 2.5 mM, pH 6.8; average of at least n=2
T1 construct: host or cells: microsomes
T1 sequence (O14684 1-152): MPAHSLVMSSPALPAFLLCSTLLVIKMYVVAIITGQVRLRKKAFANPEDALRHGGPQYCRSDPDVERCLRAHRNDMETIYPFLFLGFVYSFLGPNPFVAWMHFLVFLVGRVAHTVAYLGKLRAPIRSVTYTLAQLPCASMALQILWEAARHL
Protocol: Compounds were tested as inhibitors of microsomal prostaglandin E synthase activity in microsomal prostaglandin E synthase assays and whole cell assays. These assays measure prostaglandin E2 (PGE2) synthesis, which is taken as a measure of prostaglandin E synthase activity. Microsomal prostaglandin E synthase biochemical assays used microsomal prostaglandin E synthase-1 in microsomal preparations. The source of the microsomes can be for example interleukin-1β-stimulated human A549 cells (which express human mPGES-1) or Sf9 cells transfected with plasmids encoding human mPGES-1 cDNA.
A solution of test compound was added to a diluted microsome preparation containing human mPGES-1 and pre-incubated for 15 minutes in potassium phosphate buffer pH 6.8 with cofactor glutathione (GSH). Corresponding solutions without test compound were used as positive controls, and corresponding solutions without test compound and without microsomes were used as negative controls. The enzymatic reaction was then started by addition of the substrate PGH2 in an organic solution (dry acetonitrile).
The typical reaction conditions of the enzymatic reaction were thus: Test compound: ranging from 60 μM to 0.002 μM, or zero in positive and negative controls; potassium phosphate buffer pH 6.8:50 mM; GSH: 2.5 mM; mPGES-1-containing microsomes: 2 μg/mL (sample and positive controls) or 0 μg/mL (negative control); PGH2: 10.8 μM; Acetonitrile: 7.7% (v/v); DMSO: 0.6% (v/v). The reaction was stopped after one minute by adding an acidic solution (pH 1.9) of ferric chloride and citrate (final concentrations 7 mM and 47 mM respectively), by which the PGH2 was sequestered (the PGH2 is reduced to mainly 12-hydroxy heptadecatrineoic acid (12-HHT) which is not detected by the subsequent PGE2 detection step). The resulting solution was then pH neutralized by addition of potassium phosphate buffer, prior to diluting an aliquot of the resulting solution in a weak potassium phosphate buffer (50 mM, pH 6.8) containing 0.2% BSA (w/v). [Adapted from Jacobsson et al., Proc. Natl. Acad. Sci. USA, 1999, vol. 96, pp. 7220-7225] The PGE2 formed was quantified by use of a commercial HTRF based kit (catalogue #62PG2PEC or #62P2APEC from Cisbio International). 100% activity was defined as the PGE2 production in positive controls subtracted by the PGE2 production in the negative controls. IC50 values were then determined using standard procedures.
The potency is expressed as IC50 and the value indicated is an average of at least n=2.

[1] = test system: mPGES-1-dependent PGE2 production in human blood; assay: Whole blood assay (LPS-stimulated human blood, PGE2 production); format: cell-based; conditions: 0.1 μg/ml LPS, 16 hours at 37° C., PGE2 by HTRF, read-out: hWBA
From the text: The whole blood assay [described by Patrignani, P. et al, Journal of Pharmacology and Experimental Therapeutics, 1994, vol. 271, pp 1705-1712] was used as the whole cell assay for testing the compounds. Whole blood provides a protein and cell rich environment for the study of biochemical efficacy of anti-inflammatory compounds, such as prostaglandin synthase inhibitors. To study the inhibitory activities of these compounds, human blood was stimulated with lipopolysaccharide (LPS) for typically 16 hours to induce mPGES-1 expression, after which the concentration of produced PGE2 was measured by competitive-immuno assay (homogeneous time-resolved fluorescence, HTRF) as read out for effectiveness against mPGES-1-dependent PGE2 production.
Human blood collected from human volunteers in heparinized tubes was incubated with 100 μM acetyl salicylic acid, in order to inhibit the constitutively expressed cyclooxygenase (COX)-1/COX-2 enzymes, and then stimulated with 0.1 μg/ml LPS to induce the expression of enzymes along the COX-2 pathway, e.g. COX-2 and mPGES-1. 100 μL of this blood was added to the wells of a 384-well plate containing 1 μL DMSO solutions of compounds typically in the final concentration range 316 μM to 0.01 μM. Naproxen was used as reference compound. The mix was incubated at 37° C. for 16 hours. Plasma was harvested by centrifugation and stored at −70° C. until further analysis of PGE2 levels. For the calculations, the 0%-activity value was represented by blood treated with acetyl salicylic acid, LPS and the reference compound (1 mM Naproxen). The 100%-activity value was represented by blood treated with aspirin, LPS and DMSO. [Reference: Patrignani, P. et al, Journal of Pharmacology and Experimental Therapeutics, 1994, vol. 271, pp 1705-1712]. The PGE2 formed was quantified, after dilution in a weak potassium phosphate buffer (50 mM, pH 6.8) containing 0.2% BSA (w/v), by use of a commercial HTRF based kit (catalogue #62PG2PEC or #62P2APEC from Cisbio International). IC50 values were then determined using standard procedures.

IC50 (human mPGES-1) [nM]	IC50 [1] [nM]	SMILES
3.4	63.9	NS(=O)(=O)c1ccccc1NS(=O)(=O)CCc1ccc(Br)cc1OCC1CCOCC1 [Example 1, 2-[({2-[4-Bromo-2-(tetrahydro-2H-pyran-4-ylmethoxy)phenyl]ethyl}sulfonyl)amino]benzenesulfonamide]
3.5	24.9	NS(=O)(=O)c1ccccc1NS(=O)(=O)CCc1ccc(Cl)cc1OCC1CCOCC1 [Example 2, 2-[({2-[4-Chloro-2-(tetrahydro-2H-pyran-4-ylmethoxy)phenyl]ethyl}sulfonyl)amino]benzenesulfonamide]
4	26.6	NS(=O)(=O)c1ccccc1NS(=O)(=O)CCc1ccc(C(F)(F)F)cc1OCC1CCOCC1 [Example 3, 2-[({2-[2-(Tetrahydro-2H-pyran-4-ylmethoxy)-4-(trifluoromethyl)phenyl]ethyl}sulfonyl)amino]benzenesulfonamide]
15	154	Cc1ccc(CCS(=O)(=O)Nc2ccccc2S(N)(=O)=O)c(OCC2CCOCC2)c1 [Example 4, 2-[({2-[4-methyl-2-(tetrahydro-2H-pyran-4-ylmethoxy)phenyl]ethyl}sulfonyl)amino]benzenesulfonamide]
16	89.7	NS(=O)(=O)c1ccccc1NS(=O)(=O)CCc1ccc(F)cc1OCC1CCOCC1 [Example 5, 2-[({2-[4-Fluoro-2-(tetrahydro-2H-pyran-4-ylmethoxy)phenyl]ethyl}sulfonyl)amino]benzenesulfonamide]
7.6	149	NS(=O)(=O)c1ccccc1NS(=O)(=O)CCc1ccc(F)cc1OCC1CCC(F)(F)CC1 [Example 8, 2-{[(2-{2-[(4,4-Difluorocyclohexyl)methoxy]-4-fluorophenyl}ethyl)sulfonyl]amino}benzenesulfonamide]
< 2.2	7.92	NS(=O)(=O)c1ccccc1NS(=O)(=O)CCc1ccc(C#CC2CC2)cc1OCC1CCOCC1 [Example 10, 2-[({2-[4-(Cyclopropylethynyl)-2-(tetrahydro-2H-pyran-4-ylmethoxy)phenyl]ethyl}sulfonyl)amino]benzenesulfonamide]
3.4	1.85	CC(C)C#Cc1ccc(CCS(=O)(=O)Nc2ccccc2S(N)(=O)=O)c(OCC2CCOCC2)c1 [Example 13, 2-[({2-[4-(3-methylbut-1-yn-1-yl)-2-(tetrahydro-2H-pyran-4-ylmethoxy)phenyl]ethyl}sulfonyl)amino]benzenesulfonamide]
19.5	214	NS(=O)(=O)c1cc(CO)ccc1NS(=O)(=O)CCc1ccc(F)cc1OCC1CCOCC1 [Example 17, 2-[({2-[4-fluoro-2-(tetrahydro-2H-pyran-4-ylmethoxy)phenyl]ethyl}sulfonyl)amino]-5-(hydroxymethyl)benzenesulfonamide]

The remaining lines, values behind:

SMILES	IC50 (human mPGES-1) [nM]	IC50 [1] [nM]
NS(=O)(=O)c1ccccc1NS(=O)(=O)CCc1ccc(Cl)cc1OCC1CCC(F)(F)CC1 [Example 6, 2-{[(2-{4-Chloro-2-[(4,4-difluorocyclohexyl)methoxy]phenyl}ethyl)sulfonyl]amino}benzenesulfonamide]	2.7	11.5
Cc1ccc(CCS(=O)(=O)Nc2ccccc2S(N)(=O)=O)c(OCC2CCC(F)(F)CC2)c1 [Example 7, 2-{[(2-{2-[(4,4-Difluorocyclohexyl)methoxy]-4-methylphenyl}ethyl)sulfonyl]amino}benzenesulfonamide]	7.2	54.1
NS(=O)(=O)c1ccccc1NS(=O)(=O)CCc1ccc(C#Cc2ccccc2)cc1OCC1CCOCC1 [Example 9, 2-[({2-[4-(Phenylethynyl)-2-(tetrahydro-2H-pyran-4-ylmethoxy)phenyl]ethyl}sulfonyl)amino]benzenesulfonamide]	3.4	0.911
NS(=O)(=O)c1ccccc1NS(=O)(=O)CCc1ccc(C#CC2CCCC2)cc1OCC1CCOCC1 [Example 11, 2-[({2-[4-(Cyclopentylethynyl)-2-(tetrahydro-2H-pyran-4-ylmethoxy)phenyl]ethyl}sulfonyl)amino]benzenesulfonamide]	2.1	0.987
NS(=O)(=O)c1ccccc1NS(=O)(=O)CCc1ccc(C#CC2CCC2)cc1OCC1CCOCC1 [Example 12, 2-[({2-[4-(cyclobutylethynyl)-2-(tetrahydro-2H-pyran-4-ylmethoxy)phenyl]ethyl}sulfonyl)amino]benzenesulfonamide]	< 2.3	1.84
Cc1ccc(C#Cc2ccc(CCS(=O)(=O)Nc3ccccc3S(N)(=O)=O)c(OCC3CCOCC3)c2)cc1 [Example 14, 2-{[(2-{4-[(4-Methylphenyl)ethynyl]-2-(tetrahydro-2H-pyran-4-ylmethoxy)phenyl}ethyl)sulfonyl]amino}benzenesulfonamide]	2.1	0.987
CC(C)(C)C#Cc1ccc(CCS(=O)(=O)Nc2ccccc2S(N)(=O)=O)c(OCC2CCOCC2)c1 [Example 15, 2-[({2-[4-(3,3-Dimethylbut-1-yn-1-yl)-2-(tetrahydro-2H-pyran-4-ylmethoxy)phenyl]ethyl}sulfonyl)amino]benzenesulfonamide]	< 2.5	17.1
NS(=O)(=O)c1cc(CO)ccc1NS(=O)(=O)CCc1ccc(Cl)cc1OCC1CCOCC1 [Example 16, 2-[({2-[4-chloro-2-(tetrahydro-2H-pyran-4-ylmethoxy)phenyl]ethyl}sulfonyl)amino]-5-(hydroxymethyl)benzenesulfonamide]	5.6	29

— patent US10081614B2, “Bis(sulfonamide) derivatives and their use as mPGES inhibitors” (Acturum Real Estate AB, priority 2014, dated 2018)
